# From patent US20020006406A1, “METHOD FOR THE TREATMENT OF STAPHYLOCOCCAL DISEASE” (priority 1997, published 2002)
# Marks after values point to notes of the source that are not given here.
# Key:
# [1] = test system: Staphylococcus epidermidis; experiment: MIC against Staphylococcus epidermidis clinical isolates; format: cell-based; settings: 11 of 13 clinical isolates of S. epidermidis tested
# Text: (§1) Approved Standard M7-A3. Methods for dilution antimicrobial susceptibility tests for bacteria that grow aerobically—Third edition. National Committee for Clinical Laboratory Standards, Villanova, Pa.; National Committee for Clinical Laboratory Standards, 1992. Tentative Guideline M26-T. Methods for determining bactericidal activity of antimicrobial agents. National Committee for Clinical Laboratory Standards, Villanova, Pa.].
# MRSA 27619 = experiment: Experimental aortic valve endocarditis in rabbits, MRSA 27619; format: in vivo, S. aureus; settings: for Mean log10CFU/gram of vegetation / Number of sterile vegetations/total animals treated: three days
# Method: Aortic valve endocarditis was established in New Zealand white rabbits weighing approximately 3 kg. Rabbits were anesthetized and the right carotid artery surgically exposed and cannulated with a polyethylene catheter which was advanced into the left ventricle of the heart. After at least 24 h, the rabbits were infected intravenously with 10^6-10^7 cells of a methicillin-resistant S. aureus strain (MRSA 27619). Twenty-four hours later, the animals were randomly assigned to different treatment groups; untreated control (9 rabbits); positive control, vancomycin 30 mg/kg twice daily (15); lysostaphin 5 mg/kg three times daily (11); lysostaphin 5 mg/kg once daily (10); lysostaphin 5 mg/kg once daily+vancomycin 30 mg/kg twice daily (11).
# All treatments were intravenous and were carried out for three days. The state of health of the rabbits was assessed at intervals. The rabbits were sacrificed 18 h after the last treatment. Aortic vegetations were removed and weighed and processed to determine the number of viable bacteria, expressed as log,10CFU/gram. The limit of detection is 10^2 CFU/gram (log10CFU/gram=2.0). The mean titers of bacteria per gram were compared by one-way analysis of variance. The Student-Newman-Keuls test was used to adjust for multiple comparisons.
# Comparison of the rates of sterilization were made using Fisher's exact test. Statistical significance was defined as a P value of ≦0.05.
# Kidney abscesses were also assessed for the presence of staphylococci.
# S. aureus [2] = experiment: MIC by broth macrodilution in glass tubes; format: cell-based
# Method: In this experiment, MICs were determined by broth macrodilution in 1 ml final volumes in glass tubes. Otherwise, the methodology was as described above.
# [3] = intraperitoneal infection, cited from earlier work
# S. aureus [4] = experiment: MIC by standard broth microdilution; format: cell-based
# Text: as §1
# S. aureus Smith = experiment: Acute S. aureus infection model in mice (survival); format: in vivo
# Method: The efficacy of lysostaphin was compared to that of vancomycin in an acute infection model in mice. S. aureus Smith was cultured overnight, with moderate agitation, in Veal Infusion broth (Difco) and diluted in broth containing 5% hog gastric mucin (Difco). Male Swiss-Webster mice (Taconic Farms, Germantown, N.Y.) weighing approximately 20 grams were infected intraperitoneally with 10^5-10^6 viable cells, approximately tenfold the inoculum that reproducibly killed all untreated animals within 48 h. There were six mice in each treatment group. Lysostaphin was administered intravenously (in 0.1 ml 5% dextrose for injection) or subcutaneously (in 0.2 ml), within 10 min of infection. Vancomycin was administered subcutaneously.
# [5] = at least 50 mg/kg/treatment; cited from earlier work
# S. aureus [6] = experiment: MIC by broth microdilution with 0.1% BSA in the diluent; format: cell-based
# Method: Lysostaphin sticks to plastic materials and can be lost from solution; this can affect its apparent activity. Therefore, some MIC determinations were also performed with additions of 0.1% bovine serum album (BSA) to the diluent. Otherwise, the method was identical to that cited above. […] Since this observation is related to the affinity of lysostaphin for plastic materials, it is to be expected that, in general, staphylococcal strains are more susceptible to lysostaphin than was observed previously.
# S. aureus strain AG461 = settings: strain AG461 (methicillin-resistant clinical isolate)
# Text: The different concentrations of lysostaphin and vancomycin used were one and eight times their respective MIC.
# S. aureus [7] = experiment: MBC by standard broth microdilution (kills 99.9% of inoculum in 24 h); format: cell-based
# Text: as §1
# [8] = clinical isolates of S. aureus (summary of Table 1a)
# [9] = strain 404 (clinical isolate, methicillin-resistant)
# [10] = strain 450M (clinical isolate, methicillin-resistant)
# [11] = strain 1573 (clinical isolate, methicillin-resistant)
# [12] = strain 27222 (clinical isolate, methicillin-resistant)
# [13] = strain 27286 (clinical isolate, methicillin-resistant)
# [14] = strain 27287 (clinical isolate, methicillin-resistant)
# [15] = strain 27295 (clinical isolate, methicillin-resistant)
# [16] = strain 27619 (clinical isolate, methicillin-resistant)
# [17] = strain 27619VR (laboratory-derived, intermediate susceptibility to vancomycin)
# [18] = strain 27621 (clinical isolate, methicillin-resistant)
# [19] = strain 27622 (clinical isolate, methicillin-resistant)
# [20] = strain 27698 (clinical isolate, methicillin-resistant)
# [21] = strain 29293 (clinical isolate, methicillin-resistant)
# [22] = strain COL (clinical isolate, methicillin-resistant)
# [23] = strain HP5827 (clinical isolate, methicillin-resistant, VISA)
# [24] = strain HP5836 (clinical isolate, methicillin-resistant, VISA)
# [25] = lysostaphin intravenously vs vancomycin
substance,measurement,setting,value
lysostaphin: recombinant lysostaphin enzyme from fermentation of B. sphaericus; majority component lacks the two N-terminal amino acids of the published sequence,MIC,[1],≤ 8 µg/mL
same,Mean log10CFU/gram of vegetation,MRSA 27619; 5 mg/kg once daily iv,7.08 log10CFU/gram
same,Number of sterile vegetations/total animals treated,MRSA 27619; 5 mg/kg once daily iv,2/10
same,Mean log10CFU/gram of vegetation,MRSA 27619; 5 mg/kg three times daily iv,2.26 log10CFU/gram
same,Number of sterile vegetations/total animals treated,MRSA 27619; 5 mg/kg three times daily iv,10/11^c
same,bacterial load in kidney abscesses,"MRSA 27619; thrice-daily regimen (5 mg/kg), controls just under 10^8 CFU/gram",~10^2 CFU/gram of tissue
same,state of health of the rabbits,"MRSA 27619; thrice-daily regimen, early in the treatment cycle",all in good health
same,MIC,S. aureus [2]; strain AG402 (clinical isolate),8 ng/mL
same,MIC,"S. aureus [2]; strain AG404 (clinical isolate, methicillin-resistant)",8 ng/mL
same,MIC,S. aureus [2]; strain AG414,4 ng/mL
same,MIC,S. aureus [2]; strain AG417,4 ng/mL
same,survival of treated mice,"[3]; single or multiple subcutaneous administrations, total approximately 1 mg/kg",50%
same,mice protected,[3]; total dosage of 6 mg/kg,100%
same,minimal inhibitory concentrations (MIC),S. aureus [4]; [8],≤ 1.0 µg/mL
same,MIC Without BSA,S. aureus [4]; strain 401 (clinical isolate),0.5 µg/mL
same,MIC,S. aureus [4]; strain 402 (clinical isolate),0.5 µg/mL
same,MIC,S. aureus [4]; [9],0.5 µg/mL
same,MIC Without BSA,S. aureus [4]; [9],0.5 µg/mL
same,MIC,S. aureus [4]; strain 412,0.25 µg/mL
same,MIC,S. aureus [4]; strain 414,0.25 µg/mL
same,MIC Without BSA,S. aureus [4]; strain 414,0.25 µg/mL
same,MIC,S. aureus [4]; [10],0.25 µg/mL
same,MIC,S. aureus [4]; [11],0.5 µg/mL
same,MIC,S. aureus [4]; [12],0.25 µg/mL
same,MIC,S. aureus [4]; [13],0.25 µg/mL
same,MIC,S. aureus [4]; [14],0.25 µg/mL
same,MIC Without BSA,S. aureus [4]; [14],0.25 µg/mL
same,MIC,S. aureus [4]; [15],0.13 µg/mL
same,MIC Without BSA,S. aureus [4]; [15],0.13 µg/mL
same,MIC,S. aureus [4]; [16],0.25 µg/mL
same,MIC Without BSA,S. aureus [4]; [16],0.25 µg/mL
same,MIC,S. aureus [4]; [17],0.5 µg/mL
same,MIC,S. aureus [4]; [18],0.06 µg/mL
same,MIC,S. aureus [4]; [19],0.06 µg/mL
same,MIC,S. aureus [4]; [20],0.25 µg/mL
same,MIC,S. aureus [4]; [21],0.06 µg/mL
same,MIC,S. aureus [4]; [22],0.13 µg/mL
same,MIC,S. aureus [4]; [23],0.5 µg/mL
same,MIC,S. aureus [4]; [24],0.5 µg/mL
same,% survival,S. aureus Smith; 0.08 mg/kg iv within 10 min of infection,33%
same,% survival,S. aureus Smith; 0.16 mg/kg iv within 10 min of infection,100%
same,% survival,S. aureus Smith; 0.31 mg/kg iv within 10 min of infection,100%
same,% survival,S. aureus Smith; 0.63 mg/kg iv within 10 min of infection,100%
same,% survival,S. aureus Smith; 1.25 mg/kg sc,67%
same,% survival,S. aureus Smith; 2.5 mg/kg sc,100%
same,% survival,S. aureus Smith; 5 mg/kg sc,100%
same,% survival,S. aureus Smith; 10 mg/kg sc,100%
same,% survival,S. aureus Smith; 20 mg/kg sc,100%
same,% survival,"S. aureus Smith; Table 4 experiment, dose 0.04 mg/kg",0%
same,% survival,"S. aureus Smith; Table 4 experiment, dose 0.08 mg/kg",17%
same,% survival,"S. aureus Smith; Table 4 experiment, dose 0.16 mg/kg",83%
same,"effectiveness relative to vancomycin, on a molar basis",S. aureus Smith; [25],about 200 times
same,"effectiveness relative to vancomycin, on a weight basis",S. aureus Smith; [25],16 times
same,"effectiveness (health of the dogs, reduction of bacteria in heart valves and kidneys)",[5],only moderately effective
same,MIC With BSA,S. aureus [6]; strain 401 (clinical isolate),0.015 µg/mL
same,MIC With BSA,S. aureus [6]; [9],0.008 µg/mL
same,MIC With BSA,S. aureus [6]; strain 414,0.03 µg/mL
same,MIC With BSA,S. aureus [6]; strain 417,0.03 µg/mL
same,MIC With BSA,"S. aureus [6]; strain 25756 (clinical isolate, methicillin-resistant)",0.008 µg/mL
same,MIC With BSA,S. aureus [6]; [14],0.03 µg/mL
same,MIC With BSA,S. aureus [6]; [15],≦0.004 μg/ml
same,MIC With BSA,S. aureus [6]; [16],0.008 µg/mL
same,MIC (lower time-kill concentration stated to be one times MIC),S. aureus strain AG461,4 ng/mL
same,minimal bactericidal concentrations (MBC),S. aureus [7]; [8],≤ 1.0 µg/mL
same,MBC,S. aureus [7]; strain 402 (clinical isolate),0.5 µg/mL
same,MBC,S. aureus [7]; [9],0.5 µg/mL
same,MBC,S. aureus [7]; strain 412,0.25 µg/mL
same,MBC,S. aureus [7]; strain 414,0.25 µg/mL
same,MBC,S. aureus [7]; [10],0.5 µg/mL
same,MBC,S. aureus [7]; [11],1 µg/mL
same,MBC,S. aureus [7]; [12],0.25 µg/mL
same,MBC,S. aureus [7]; [13],0.5 µg/mL
same,MBC,S. aureus [7]; [14],0.25 µg/mL
same,MBC,S. aureus [7]; [15],0.25 µg/mL
same,MBC,S. aureus [7]; [16],0.5 µg/mL
same,MBC,S. aureus [7]; [17],0.5 µg/mL
same,MBC,S. aureus [7]; [18],0.25 µg/mL
same,MBC,S. aureus [7]; [19],0.25 µg/mL
same,MBC,S. aureus [7]; [20],0.5 µg/mL
same,MBC,S. aureus [7]; [21],0.25 µg/mL
same,MBC,S. aureus [7]; [22],0.25 µg/mL
same,MBC,S. aureus [7]; [23],0.5 µg/mL
same,MBC,S. aureus [7]; [24],1 µg/mL
